From ChEMBL document CHEMBL4406824, “Phenolic N-monosubstituted carbamates: Antitubercular and toxicity evaluation of multi-targeting compounds” (Eur J Med Chem, 2019)
Values after ≈ are worked out from the molar mass of the structure shown.

Columns and labels:
[1] = target: T1, Isocitrate lyase (Mycobacterium tuberculosis, UniProt P9WKK7); experiment: Inhibition of recombinant Mycobacterium tuberculosis ICL expressed in Escherichia coli BL21 (DE3) cells using DL-isocitric acid trisodium salt hydrate as substrate after 30 mins
T1 sequence (P9WKK7 whole entry): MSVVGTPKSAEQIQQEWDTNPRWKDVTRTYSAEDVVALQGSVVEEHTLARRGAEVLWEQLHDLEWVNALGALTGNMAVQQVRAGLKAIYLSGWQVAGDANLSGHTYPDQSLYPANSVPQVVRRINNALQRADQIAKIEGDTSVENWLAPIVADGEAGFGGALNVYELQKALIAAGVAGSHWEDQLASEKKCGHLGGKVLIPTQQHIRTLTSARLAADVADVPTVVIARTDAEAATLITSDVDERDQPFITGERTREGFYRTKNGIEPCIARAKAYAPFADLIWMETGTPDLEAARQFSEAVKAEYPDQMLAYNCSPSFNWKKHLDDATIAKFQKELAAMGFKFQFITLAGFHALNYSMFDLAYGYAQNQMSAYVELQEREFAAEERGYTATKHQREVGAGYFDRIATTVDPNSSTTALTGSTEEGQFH

[2] = system: Mycobacterium tuberculosis; assay type: functional, H37Rv 331/88; design: reference not given here
[3] = system: Mycobacterium kansasii; experiment: Antimycobacterial activity against Mycobacterium kansasii 235/80 after 7 days; assay type: functional; conditions: 235/80, 168 h
[4] = system: Mycobacterium tuberculosis; experiment: Antimycobacterial activity against Mycobacterium tuberculosis H37Ra ITM-M006710 after 48 hr by resazurin dye based microdilution method; assay type: functional; conditions: H37Ra ITM-M006710, 48 h
[5] = system: Mycobacterium kansasii; experiment: Antimycobacterial activity against Mycobacterium kansasii 235/80 after 21 days; assay type: functional; conditions: 235/80, 504 h
[6] = system: Mycobacterium tuberculosis H37Rv; experiment: Inhibition of recombinant Mycobacterium tuberculosis H37Rv ICL1 expressed in Escherichia coli BL21 (DE3) cells at 10 uM using (+)-potassium Ds-threo-isocitrate as substrate by glyoxylate phenyl hydrazone formation assay relative to control
[7] = system: Mycolicibacterium smegmatis; experiment: Antimycobacterial activity against Mycobacterium smegmatis DSM 43465 after 120 hr by resazurin dye based microdilution method; assay type: functional; conditions: DSM 43465, 120 h
[8] = system: Mycobacterium avium; experiment: Antimycobacterial activity against Mycobacterium avium 330/88 after 21 days; assay type: functional; conditions: 330/88, 504 h
[9] = system: Mycobacterium kansasii; experiment: Potency index, ratio of p-aminosalicylic acid MIC to compound MIC for antimycobacterial activity against Mycobacterium kansasii 6509/96; assay type: functional
[10] = system: HepG2; experiment: Cytostatic activity against human HepG2 cells preincubated for overnight in serum free medium followed by compound wash out and further incubated for 72 hrs in presence of serum by MTT assay; assay type: ADME, cell-based
[11] = system: Mycobacterium kansasii; experiment: Antimycobacterial activity against Mycobacterium kansasii 6509/96 after 14 days; assay type: functional; conditions: 6509/96, 336 h
[12] = system: Mycobacterium tuberculosis; experiment: Antimycobacterial activity against XDR Mycobacterium tuberculosis Praha 131 after 21 days; assay type: functional; conditions: Praha 131, 504 h
[13] = system: Mycobacterium avium; experiment: Antimycobacterial activity against Mycobacterium avium 330/88 after 14 days; assay type: functional; conditions: 330/88, 336 h
[14] = system: Mycobacterium avium; experiment: Potency index, ratio of p-aminosalicylic acid MIC to compound MIC for antimycobacterial activity against Mycobacterium avium 330/88; assay type: functional
[15] = system: Mycobacterium kansasii; experiment: Antimycobacterial activity against Mycobacterium kansasii 6509/96 after 7 days; assay type: functional; conditions: 6509/96, 168 h
[16] = in vitro; conditions: human, HepG2 cells
Description: Selectivity index, ratio of IC50 for human HepG2 cells to MIC for antimycobacterial activity against Mycobacterium tuberculosis H37Rv

[17] = system: Mycobacterium kansasii; experiment: Potency index, ratio of p-aminosalicylic acid MIC to compound MIC for antimycobacterial activity against Mycobacterium kansasii 235/80; assay type: functional
[18] = system: Mycobacterium tuberculosis; assay type: functional; conditions: H37Rv 331/88, 504 h
[19] = system: HepG2; experiment: Cytotoxicity against human HepG2 cells assessed as reduction in cell viability after overnight incubation by MTT assay; assay type: cell-based
[20] = system: Mycolicibacterium aurum; experiment: Antimycobacterial activity against Mycobacterium aurum DSM 43999 after 72 hr by resazurin dye based microdilution method; assay type: functional; conditions: DSM 43999, 72 h
[21] = system: Mycobacterium kansasii; experiment: Antimycobacterial activity against Mycobacterium kansasii 6509/96 after 21 days; assay type: functional; conditions: 6509/96, 504 h
[22] = system: Mycobacterium kansasii; experiment: Antimycobacterial activity against Mycobacterium kansasii 235/80 after 14 days; assay type: functional; conditions: 235/80, 336 h
[23] = system: Mycobacterium tuberculosis; experiment: Antimycobacterial activity against XDR Mycobacterium tuberculosis Praha 131 after 14 days; assay type: functional; conditions: Praha 131, 336 h
[24] = system: Mycobacterium tuberculosis; assay type: functional; conditions: H37Rv 331/88, 336 h

| SMILES | Ratio [2] | MIC [3] | MIC [4] | MIC [5] | inhibition [6] | MIC [7] | MIC [8] | Ratio [9] | IC50 [10] | MIC [11] | MIC [12] | MIC [13] | MIC [15] | selectivity ratio [16] | Ratio [17] | MIC [18] | IC50 [19] | MIC [20] | MIC [21] | MIC [22] | also measured |
| --- | --- | --- | --- | --- | --- | --- | --- | --- | --- | --- | --- | --- | --- | --- | --- | --- | --- | --- | --- | --- | --- |
| COC(=O)/C=C/C(=O)c1ccc(OC)cc1 |  |  |  |  |  |  |  |  |  |  |  |  |  |  |  |  |  |  |  |  | IC50 [1]: 30.9 µM |
| O=C(NC12CC3CC(CC(C3)C1)C2)Oc1ccc(Cl)cc1C(=O)Nc1ccc(C(F)(F)F)cc1 | >125 | 4 µM (≈ 1.97 µg/mL) | 2 µM (≈ 0.986 µg/mL) | 4 µM (≈ 1.97 µg/mL) | 15% | 4 µM (≈ 1.97 µg/mL) | 4 µM (≈ 1.97 µg/mL) | >250 | 4.85 µM | 4 µM (≈ 1.97 µg/mL) | 1 µM (≈ 0.493 µg/mL) | 4 µM (≈ 1.97 µg/mL) | 4 µM (≈ 1.97 µg/mL) | > 125 | >250 | 1 µM (≈ 0.493 µg/mL) | > 125 µM | ≤ 0.79 µM | 4 µM (≈ 1.97 µg/mL) | 4 µM (≈ 1.97 µg/mL) | Ratio [14]: >31; MIC [23]: 1 µM (≈ 0.493 µg/mL); MIC [24]: ≤ 0.5 µM |
| O=C(Nc1ccccc1)Oc1ccc(Cl)cc1C(=O)Nc1ccc(C(F)(F)F)cc1 | >125 | 4 µM (≈ 1.74 µg/mL) | ≤ 0.9 µM | 4 µM (≈ 1.74 µg/mL) | 13% | ≤ 0.9 µM | 8 µM (≈ 3.48 µg/mL) | >250 | 2.45 µM | 4 µM (≈ 1.74 µg/mL) | 1 µM (≈ 0.435 µg/mL) | 8 µM (≈ 3.48 µg/mL) | 2 µM (≈ 0.87 µg/mL) | 9.8 to 19.6 | >250 | 1 µM (≈ 0.435 µg/mL) | 9.8 µM | ≤ 0.9 µM | 4 µM (≈ 1.74 µg/mL) | 4 µM (≈ 1.74 µg/mL) | MIC [23]: 1 µM (≈ 0.435 µg/mL); MIC [24]: ≤ 0.5 µM |
